Legend:
gelatinase (72 (Kd)) = target: T1, gelatinase (72 (Kd) (Homo sapiens, UniProt P08253)); assay: Assay of Gelatinase Inhibition Activity (72 Kd gelatinase); format: biochemical; conditions: 60 minutes at 37° C.; for inhibition at 10 µM: at 10 μM of compound, read-out: percent inhibition of gelatinase
T1 sequence (P08253 110-660): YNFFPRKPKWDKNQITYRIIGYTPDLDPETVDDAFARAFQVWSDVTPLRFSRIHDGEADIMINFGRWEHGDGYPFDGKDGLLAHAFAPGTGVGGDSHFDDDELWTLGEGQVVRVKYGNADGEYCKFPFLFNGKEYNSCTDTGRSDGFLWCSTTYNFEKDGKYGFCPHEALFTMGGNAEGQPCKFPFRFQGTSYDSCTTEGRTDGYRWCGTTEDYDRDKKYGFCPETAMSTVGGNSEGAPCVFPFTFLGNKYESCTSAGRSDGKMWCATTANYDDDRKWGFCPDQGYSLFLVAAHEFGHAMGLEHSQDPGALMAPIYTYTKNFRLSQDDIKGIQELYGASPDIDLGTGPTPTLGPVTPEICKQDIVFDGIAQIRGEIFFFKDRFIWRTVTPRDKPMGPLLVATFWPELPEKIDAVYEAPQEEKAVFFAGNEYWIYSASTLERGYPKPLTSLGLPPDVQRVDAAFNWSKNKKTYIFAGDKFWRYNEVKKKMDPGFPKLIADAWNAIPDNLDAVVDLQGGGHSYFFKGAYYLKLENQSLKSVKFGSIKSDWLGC
Procedure: (§1) Stromelysin was first activated by trypsin. This was done by preparing a reaction mixture in B-150 (B-150 consists of 150 mM NaCl, 20 mM Tris at pH 7.8 and 0.02% sodium azide) containing a final concentration of 4 μg/mL trypsin, 1.48 μg/mL of stromelysin, and 3.15 mM CaCl2. The reaction was incubated for 30 minutes at 37° C. and then quenched by adding soybean trypsin inhibitor to a final concentration of 43.6 μg/mL. ZnCl2 was added to the reaction mixture for a total concentration of 0.24 μM.
(§2) Following preparation of the solution of activated stromelysin, assay solutions were prepared for each inhibitor being tested. A control was also prepared. First, […] of activated stromelysin (about 45 μL from the solution of activated stromelysin) were aliquotted per assay tube. A 2.5 mM solution in 100% dimethyl sulfoxide (DMSO) was prepared for each inhibitor being tested and 1 μL from each inhibitor solution was added to one of the assay tubes. In addition, 1 μL of 100% DMSO was added to the control assay tube. All assay tubes were then pre-incubated for 5 minutes.
(§3) 5 μL of a previously prepared 50 μM solution of substrate in 15% DMSO were added to each assay tube. The substrate was a methoxycumarin developed by Knight et al. FEBS Lett. 296:263-66 (1992). The tubes were then incubated for 60 minutes, at which time the reaction was stopped with the addition of 750 μL of 0.1M NaAc pH 4.0 buffer.
(§4) Substrate hydrolysis was assessed by fluorescence using a slit width of 10:10, excitation at 328 nm and emission at 393 nm. The results of these assays are listed in Table I as percent inhibition at 10 μM of the bile acid provided compound tested or as the IC50.
The assay procedure for gelatinase (72 (Kd) was the same as described in Example 13 for stromelysin except that the trypsin activation was performed for 60 minutes. In addition, the incubation of the assay tubes at 37° C. was for 60 minutes, and the final enzyme concentration was 3 nm. The results of these assays are listed in Table I as percent inhibition at 10 μM of the compound tested.

collagenase = assay: Assay of Collagenase Inhibition Activity; format: biochemical; conditions: at 10 μM of compound; 45 minutes at 37° C.
Procedure: as §1, §2, §3, §4
The assay procedure for collagenase was the same as described in Example 13 for stromelysin except that the trypsin activation was performed for 45 minutes. In addition, the incubation of the assay tubes at 37° C. was only for 45 minutes, and the final enzyme concentration is 6 nm. The results of these assays are provided in Table I as percent inhibition at 10 μM of the compound tested.

Compound: CCOC(=O)[C@H](CS)NC(=O)[C@H](Cc1ccccc1)NC(=O)CC[C@@H](C)[C@H]1CC[C@H]2[C@@H]3CC[C@@H]4C[C@H](O)CC[C@]4(C)[C@H]3CC[C@]12C [Compound 19, Lithocholyl-(L)-Phenylalanyl-(L)-Cysteine Ethyl Ester]
- inhibition at 10 µM (gelatinase (72 (Kd))): 47%
- percent inhibition of collagenase (collagenase): 33%

Compound: C[C@H](CCC(=O)NOCc1ccccc1)[C@H]1CC[C@H]2[C@@H]3[C@H](O)C[C@@H]4C[C@H](O)CC[C@]4(C)[C@H]3CC[C@]12C [Compound 12, Chenodeoxycholyl-O-Benzylhyroxamate]
- percent inhibition of collagenase (collagenase): 21%

Compound: C[C@H](CCC(=O)N[C@@H](Cc1ccccc1)C(=O)NO)[C@H]1CC[C@H]2[C@@H]3[C@H](O)C[C@@H]4C[C@H](O)CC[C@]4(C)[C@H]3CC[C@]12C [Compound 16, Chenodeoxycholyl-(L)-Phenylalanine Hydroxamic Acid]
- inhibition at 10 µM (gelatinase (72 (Kd))): 23%
- percent inhibition of collagenase (collagenase): 38%

Compound: C[C@H](CCC(=O)N[C@@H](Cc1ccccc1)C(=O)NC1CCSC1=O)[C@H]1CC[C@H]2[C@@H]3CC[C@@H]4C[C@H](O)CC[C@]4(C)[C@H]3CC[C@]12C (some centres unmarked) [Compound 20, Lithocholyl-Phenylalanylhomocysteine Thiolactone]
- inhibition at 10 µM (gelatinase (72 (Kd))): 30%
- percent inhibition of collagenase (collagenase): 57%

Compound: CC(C)C[C@H](NC(=O)CC[C@@H](C)[C@H]1CC[C@H]2[C@@H]3[C@H](O)C[C@@H]4C[C@H](O)CC[C@]4(C)[C@H]3CC[C@]12C)C(=O)NO [Compound 10, Chenodeoxycholyl-(L)-Leucine Hydroxamic Acid]
- inhibition at 10 µM (gelatinase (72 (Kd))): 27%
- percent inhibition of collagenase (collagenase): 8%

Compound: CC(C)C[C@H](NC(=O)CC[C@@H](C)[C@H]1CC[C@H]2[C@@H]3CC[C@@H]4C[C@H](O)CC[C@]4(C)[C@H]3CC[C@]12C)C(=O)NO [Compound 9, Lithocholyl-(L)-Leucine Hydroxamic Acid]
- IC50 (gelatinase (72 (Kd))): 0.3 µM
- percent inhibition of collagenase (collagenase): 27%

Compound: C[C@H](CCC(=O)O)[C@H]1CC[C@H]2[C@@H]3CC[C@@H]4C[C@H](O)CC[C@]4(C)[C@H]3CC[C@]12C [Compound 1, Lithocholic acid, reference compound]
- percent inhibition of collagenase (collagenase): 27%

Compound: C[C@H](CCC(=O)NO)[C@H]1CC[C@H]2[C@@H]3CC[C@@H]4C[C@H](O)CC[C@]4(C)[C@H]3CC[C@]12C [Compound 13, Lithocholylhydroxamic Acid]
- IC50 (gelatinase (72 (Kd))): 8 µM
- percent inhibition of collagenase (collagenase): 35%

Compound: C[C@H](CCC(=O)NCCC[N+](C)(C)CCCS(=O)(=O)[O-])[C@H]1CC[C@H]2[C@@H]3[C@H](O)C[C@@H]4C[C@H](O)CC[C@]4(C)[C@H]3C[C@H](O)[C@]12C [Compound 8, 3-[(3-cholamidopropyl)dimethylammonio)-1-propanesulfonate, reference compound]
- percent inhibition of collagenase (collagenase): 22%

Compound: C[C@H](CCC(=O)N[C@@H](Cc1ccccc1)C(=O)NO)[C@H]1CC[C@H]2[C@@H]3CC[C@@H]4C[C@H](O)CC[C@]4(C)[C@H]3CC[C@]12C [Compound 15, Lithocholyl-(L)-Phenylalanine Hydroxamic Acid]
- inhibition at 10 µM (gelatinase (72 (Kd))): 47%
- percent inhibition of collagenase (collagenase): 58%

From patent US5646316A, “Bile acid inhibitors of metalloproteinase enzymes” (OsteoArthritis Sciences, Inc., priority 1995, dated 1997)
